Data from ChEMBL document CHEMBL5042500 (J Med Chem, 2022).
In brackets after ≈: the same amount, converted by molar mass.

Key:
[1] = target: Ribosomal protein S6 kinase alpha-1 (Homo sapiens) (UniProt Q15418); assay: Inhibition of RSK1 kinase (unknown origin) at 0.1 uM
[2] = Solubility of the compound in FeSSIF at pH 5.0; assay type: physicochemical
Cytochrome P450 3A4 [3] = target: T1, Cytochrome P450 3A4 (Homo sapiens, UniProt P08684); assay: Inhibition of CYP3A4 in human liver microsomes using testosterone as substrate incubated for 30 mins by LC-MS/MS analysis; assay type: ADME
[4] = Metabolic stability in CD1 mouse liver microsomes assessed as compound degradation in presence of NADPH measured after 20 mins; assay type: ADME, Microsome; details: read-out: Drug degradation
[5] = target: T2, Serine/threonine-protein kinase Sgk1 (Homo sapiens, UniProt O00141); assay: Inhibition of recombinant human SGK1 expressed in baculovirus expression system using 5-carboxyfluorescein -RPRAATF-NH2 as substrate preincubated for 30 mins followed by substrate addition in presence of 10 uM ATP and measured after 60 mins by microfluidics assay
T2 sequence (O00141 whole entry): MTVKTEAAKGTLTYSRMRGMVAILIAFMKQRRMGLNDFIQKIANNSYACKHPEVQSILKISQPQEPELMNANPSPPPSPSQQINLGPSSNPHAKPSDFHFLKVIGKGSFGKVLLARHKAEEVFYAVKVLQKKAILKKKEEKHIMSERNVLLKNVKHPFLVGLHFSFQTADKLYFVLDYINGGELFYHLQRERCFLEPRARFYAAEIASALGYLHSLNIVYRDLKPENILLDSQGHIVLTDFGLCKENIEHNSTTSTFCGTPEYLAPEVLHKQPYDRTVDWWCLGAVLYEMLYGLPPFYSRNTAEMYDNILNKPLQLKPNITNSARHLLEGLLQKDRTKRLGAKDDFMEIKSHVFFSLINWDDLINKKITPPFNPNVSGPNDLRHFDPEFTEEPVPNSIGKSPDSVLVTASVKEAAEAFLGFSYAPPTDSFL

[6] = target: T2, Serine/threonine-protein kinase Sgk1; assay: Inhibition of recombinant human SGK1 expressed in baculovirus expression system using 5-carboxyfluorescein -RPRAATF-NH2 as substrate preincubated for 30 mins followed by substrate addition in presence of 500 uM ATP and measured after 60 mins by microfluidics assay
[7] = target: T3, Serine/threonine-protein kinase Sgk1 (Mus musculus, UniProt Q9WVC6); assay: Inhibition of mouse SGK1 in presence 500 uM presence of ATP
T3 sequence (Q9WVC6 whole entry): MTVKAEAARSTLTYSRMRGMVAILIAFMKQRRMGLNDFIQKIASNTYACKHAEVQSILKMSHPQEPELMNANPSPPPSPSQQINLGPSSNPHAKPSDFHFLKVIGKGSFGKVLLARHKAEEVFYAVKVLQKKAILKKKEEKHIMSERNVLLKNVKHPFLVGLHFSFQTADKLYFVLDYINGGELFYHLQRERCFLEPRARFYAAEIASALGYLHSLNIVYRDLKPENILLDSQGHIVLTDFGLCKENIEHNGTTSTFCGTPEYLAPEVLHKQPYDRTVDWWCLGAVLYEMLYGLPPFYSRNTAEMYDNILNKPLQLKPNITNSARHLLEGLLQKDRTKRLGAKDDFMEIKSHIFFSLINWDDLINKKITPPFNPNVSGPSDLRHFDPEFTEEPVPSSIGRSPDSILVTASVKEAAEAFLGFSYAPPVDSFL

[8] = Inhibition of rat SGK1 in presence 500 uM presence of ATP
[9] = Distribution coefficient, logD of compound at pH 7.4 by chromatographic analysis; assay type: physicochemical; details: octanol/water
[10] = Aqueous solubility of the compound at pH 7.4; assay type: physicochemical
[11] = Effect on chondrocyte hypertrophic differentiation mouse ATDC-5 cells assessed as inhibition of […] gene expression incubated for 2 weeks followed by compound added and every 3 days medium is changed measured after 2 weeks by RT-qPCR analysis; assay type: functional, cell-based
[12] = Permeability in human Caco2 cells at 20 uM incubated for 120 mins by ESI-MS/MS analysis; assay type: ADME, cell-based; details: Caco-2, read-out: permeability
[13] = Chemical stability of the compound at pH 7.4 measured after 24 hrs; assay type: physicochemical; details: buffer, read-out: Stability
[14] = Metabolic stability in human liver microsomes assessed as compound degradation in presence of NADPH measured after 20 mins; assay type: ADME, Microsome; details: read-out: Drug degradation
[15] = Metabolic stability in Sprague-Dawley rat liver microsomes assessed as compound degradation in presence of NADPH measured after 20 mins; assay type: ADME, Microsome; details: read-out: Drug degradation
[16] = Intrinsic clearance in human hepatocytes assessed per 10^-6 cells; assay type: ADME, cell-based, Hepatocyte
Cytochrome P450 3A4 [17] = target: T1, Cytochrome P450 3A4; assay: Inhibition of CYP3A4 in human liver microsomes using midazolam as substrate incubated for 10 mins by LC-MS/MS analysis; assay type: ADME
CYP3A4 = CYP3A4 (Homo sapiens, UniProt P08684); assay: Inhibition of CYP3A4 in human liver microsomes by measuring maximum efficacy; assay type: ADME
hERG (KCNH2) [18] = target: T4, hERG (KCNH2) (Homo sapiens, UniProt Q12809); assay: Inhibition of human ERG at 1 uM relative to control; assay type: toxicity
hERG (KCNH2) [19] = target: T4, hERG (KCNH2); assay: Inhibition of human ERG at 10 uM; assay type: toxicity
Homo sapiens = species on record: Homo sapiens; assay: Inhibition of p70S6Kb kinase (unknown origin) at 0.1 uM
Salmonella typhimurium [20] = assay: Mutagenicity in Salmonella typhimurium […] in presence of S9 fraction by ames test; assay type: toxicity, organism-based; details: salmonella enterica subsp. enterica serovar typhimurium
Salmonella typhimurium [21] = assay: Mutagenicity in Salmonella typhimurium […] by ames test; assay type: toxicity, organism-based; details: salmonella enterica subsp. enterica serovar typhimurium
[22] = Cmax in Lewis rat plasma at 30 mg/kg, po measured after 8 hrs; assay type: ADME, organism-based; set-up: route oral, time 8 hrs, dose 30 mg/kg
[23] = Tmax in Lewis rat plasma at 30 mg/kg, po measured after 8 hrs; assay type: ADME, organism-based
[24] = AUC (0 to 24 hrs) in Lewis rat plasma at 30 mg/kg, po measured after 8 hrs; assay type: ADME, organism-based; set-up: route oral, dose 30 mg/kg, time 8 hrs
[25] = Cmax in Lewis rat femoral head cartilage at 30 mg/kg, po measured after 8 hrs; assay type: ADME, organism-based, Femur; set-up: route oral, time 8 hrs, dose 30 mg/kg
[26] = Tmax in Lewis rat femoral head cartilage at 30 mg/kg, po measured after 8 hrs; assay type: ADME, organism-based, Femur
[27] = AUC (0 to 24 hrs) in Lewis rat femoral head cartilage at 30 mg/kg, po measured after 8 hrs; assay type: ADME, organism-based, Femur; set-up: route oral, dose 30 mg/kg, time 8 hrs
[28] = Ratio of AUC(0 to 24 hrs) in femoral head to plasma in rat measured after 1 hrs; assay type: ADME, Bone/Plasma; details: read-out: Selectivity ratio
[29] = Ratio of AUC(0 to 24 hrs) in femoral head to plasma in rat measured after 24 hrs; assay type: ADME, Bone/Plasma; details: read-out: Selectivity ratio
[30] = Initial plasma concentration in C57BL/6 mouse at 3 mg/kg, iv; assay type: ADME, organism-based
[31] = Half life in C57BL/6 mouse plasma at 3 mg/kg, iv; assay type: ADME, organism-based
[32] = AUC (0 to 24 hrs) in C57BL/6 mouse at 3 mg/kg, iv; assay type: ADME, organism-based; set-up: time < 24 hr, route intravenous, dose 3 mg/kg; details: in vivo
[33] = Intrinsic clearance in C57BL/6 mouse at 3 mg/kg, iv; assay type: ADME, organism-based; details: in vivo
[34] = Volume of distribution at steady state in C57BL/6 mouse at 3 mg/kg, iv qd; assay type: ADME, organism-based; details: in vivo, read-out: Vdss
[35] = Cmax in C57BL/6 mouse plasma at 30 mg/kg, po measured after 8 hrs; assay type: ADME, organism-based; set-up: route oral, time 8 hrs, dose 30 mg/kg
[36] = Half life in C57BL/6 mouse plasma at 30 mg/kg, po measured after 8 hrs; assay type: ADME, organism-based
[37] = AUC (0 to 24 hrs) in C57BL/6 mouse at 30 mg/kg, po; assay type: ADME, organism-based; set-up: time < 24 hr, route oral, dose 30 mg/kg; details: in vivo
[38] = Tmax in C57BL/6 mouse plasma at 30 mg/kg, po; assay type: ADME, organism-based
[39] = Oral bioavailability in C57BL/6 mouse at 30 mg/kg; assay type: ADME, organism-based; details: in vivo

T4 sequence (Q12809 whole entry): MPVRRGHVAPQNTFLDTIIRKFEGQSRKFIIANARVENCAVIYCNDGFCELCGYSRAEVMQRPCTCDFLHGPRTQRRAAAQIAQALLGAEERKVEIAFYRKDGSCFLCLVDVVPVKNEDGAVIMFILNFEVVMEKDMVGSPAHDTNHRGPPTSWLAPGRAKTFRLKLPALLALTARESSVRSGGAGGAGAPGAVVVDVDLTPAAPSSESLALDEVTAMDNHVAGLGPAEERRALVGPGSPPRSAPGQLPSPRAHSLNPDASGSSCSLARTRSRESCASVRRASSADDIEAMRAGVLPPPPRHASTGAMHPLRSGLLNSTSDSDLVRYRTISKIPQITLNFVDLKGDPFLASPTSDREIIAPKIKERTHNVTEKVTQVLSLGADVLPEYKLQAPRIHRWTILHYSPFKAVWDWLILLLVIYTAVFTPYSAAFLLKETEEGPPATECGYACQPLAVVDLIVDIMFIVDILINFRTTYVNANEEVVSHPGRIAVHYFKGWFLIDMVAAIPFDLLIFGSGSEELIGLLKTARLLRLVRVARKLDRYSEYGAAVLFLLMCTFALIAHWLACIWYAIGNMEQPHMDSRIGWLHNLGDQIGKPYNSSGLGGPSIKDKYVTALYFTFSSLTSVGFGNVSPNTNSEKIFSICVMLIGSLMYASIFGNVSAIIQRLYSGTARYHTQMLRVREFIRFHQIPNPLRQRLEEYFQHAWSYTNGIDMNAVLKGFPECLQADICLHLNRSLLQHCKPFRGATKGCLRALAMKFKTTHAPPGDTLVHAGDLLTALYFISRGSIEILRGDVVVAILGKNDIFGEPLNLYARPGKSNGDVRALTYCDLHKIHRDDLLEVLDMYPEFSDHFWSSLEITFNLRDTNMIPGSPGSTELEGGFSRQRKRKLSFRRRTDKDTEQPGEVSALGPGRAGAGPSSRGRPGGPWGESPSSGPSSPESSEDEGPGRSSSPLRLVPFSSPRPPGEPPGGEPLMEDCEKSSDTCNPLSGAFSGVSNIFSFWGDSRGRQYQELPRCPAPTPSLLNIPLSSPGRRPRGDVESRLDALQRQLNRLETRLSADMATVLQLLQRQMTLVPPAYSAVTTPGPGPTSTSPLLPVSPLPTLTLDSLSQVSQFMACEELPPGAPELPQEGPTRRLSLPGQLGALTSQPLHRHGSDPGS
T1 sequence (P08684 whole entry): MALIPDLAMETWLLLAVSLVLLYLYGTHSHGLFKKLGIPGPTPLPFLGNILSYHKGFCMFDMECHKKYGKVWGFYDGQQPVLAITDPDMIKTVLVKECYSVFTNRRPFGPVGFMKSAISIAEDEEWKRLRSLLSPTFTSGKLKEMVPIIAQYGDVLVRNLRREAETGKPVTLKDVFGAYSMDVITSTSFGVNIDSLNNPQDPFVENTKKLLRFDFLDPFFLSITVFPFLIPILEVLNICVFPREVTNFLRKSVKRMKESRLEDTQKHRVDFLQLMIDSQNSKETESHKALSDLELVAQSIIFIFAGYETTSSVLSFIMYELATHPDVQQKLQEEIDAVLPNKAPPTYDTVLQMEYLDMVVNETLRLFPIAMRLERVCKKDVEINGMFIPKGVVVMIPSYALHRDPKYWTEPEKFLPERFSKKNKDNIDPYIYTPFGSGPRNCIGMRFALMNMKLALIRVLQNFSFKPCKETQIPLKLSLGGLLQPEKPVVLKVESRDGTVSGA
Chain of CYP3A4 (P08684 whole entry): as above
Chain of Ribosomal protein S6 kinase alpha-1 (Homo sapiens) (Q15418 whole entry): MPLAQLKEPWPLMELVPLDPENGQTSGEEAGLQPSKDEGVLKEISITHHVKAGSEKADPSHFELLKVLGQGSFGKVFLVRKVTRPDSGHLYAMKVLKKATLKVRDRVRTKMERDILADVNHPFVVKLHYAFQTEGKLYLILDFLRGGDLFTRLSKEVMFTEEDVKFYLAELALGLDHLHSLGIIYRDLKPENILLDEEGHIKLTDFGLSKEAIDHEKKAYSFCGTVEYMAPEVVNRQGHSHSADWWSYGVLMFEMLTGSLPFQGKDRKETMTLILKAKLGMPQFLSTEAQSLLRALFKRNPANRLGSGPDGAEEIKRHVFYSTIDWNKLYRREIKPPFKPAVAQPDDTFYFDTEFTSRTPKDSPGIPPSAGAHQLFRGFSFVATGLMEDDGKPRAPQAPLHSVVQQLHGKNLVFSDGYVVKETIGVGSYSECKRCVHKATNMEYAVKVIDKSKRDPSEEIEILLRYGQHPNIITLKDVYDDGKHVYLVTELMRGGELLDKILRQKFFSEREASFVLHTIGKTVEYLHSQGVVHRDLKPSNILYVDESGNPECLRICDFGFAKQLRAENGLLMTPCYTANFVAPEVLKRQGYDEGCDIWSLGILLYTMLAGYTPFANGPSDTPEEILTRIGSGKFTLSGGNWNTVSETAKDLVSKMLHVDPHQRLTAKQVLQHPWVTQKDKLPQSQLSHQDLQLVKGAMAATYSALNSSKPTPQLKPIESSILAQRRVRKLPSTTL

inhibition [1]: 64%
solubility [2]: 281 µg/mL (≈ 503 µM)
IC50 (Cytochrome P450 3A4 [3]): > 30000 nM
metabolised at 20 min [4]: 15%
IC50 [5]: 2 nM
IC50 [6]: 3 nM
IC50 [7]: 171 nM
IC50 [8]: 224 nM
chromatographic logD [9]: 1.3
solubility [10]: < 1 µg/mL
Papp at 2 h, 20 µM [12]: 4.6 ×10⁻⁶ cm/s
remaining at 24 h [13]: 100%
metabolised at 20 min [14]: 9%
metabolised at 20 min [15]: 12%
CLH [16]: 0.042 mL/h
IC50 (Cytochrome P450 3A4 [17]): > 30000 nM
Emax (CYP3A4): 0%
inhibition (Homo sapiens): 58%
Cmax [22]: 4200 ng/mL
Tmax [23]: 8 h
AUC(0-t) at 8 h [24]: 60100 ng·h/mL
Cmax [25]: 1200 ng/g
Tmax [26]: 8 h
AUC(0-t) at 8 h [27]: 16900 ng·h/mL
C0 [30]: 2200 ng/mL
half-life [31]: 2.1 h
AUC(0-t) at 24 h [32]: 3200 ng·h/mL
CL [33]: 17 mL/min/kg
Vd [34]: 2.4 L/kg
Cmax [35]: 2200 ng/mL
half-life [36]: 4.8 h
AUC(0-t) at 24 h [37]: 22800 ng·h/mL
Tmax [38]: 3.3 h
bioavailability [39]: 72%
Compound: Cc1n[nH]c2nc(-c3ccc(NS(=O)(=O)c4cc(Cl)ccc4F)cc3)nc(OC3CCN(C(C)C)CC3)c12
IC50 [11]: 70 nM
inhibition at 1 µM (hERG (KCNH2) [18]): 60%
inhibition at 10 µM (hERG (KCNH2) [19]): 91%
Activity (Salmonella typhimurium [20]): Non-Toxic
Activity (Salmonella typhimurium [21]): Non-Toxic
Kp at 1 h [28]: 0.1
Kp at 24 h [29]: 1.1
